For assay [1], the target named is BACE (Homo sapiens, UniProt P56817). Kind of assay: In vitro enzymatic BACE FRET assay. The format is biochemical. As to conditions: average IC50, enzyme assay; read-out: BACE 1 FRET assay. The essentials: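 BACE (0.2 nM) preincubated 1 h with serially diluted inhibitors in 0.05 M acetate pH 4.2, 10% DMSO, 100 uM genapol. FRET peptide substrate (50 nM) added, 1 h incubation, then stopped with Tris to neutral pH. Fluorescence from cleavage read at […].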

For assay [2], the system named is Aβ40. Kind of assay: In vitro BACE cell-based assay (Aβ40 sandwich ELISA, cells stably expressing APP). To be noted: Homo sapiens, HEK293, average IC50; read-out: HEK cell assay. Summed up: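 APP-stably-expressing cells, grown 24 h in DMEM/10% FBS, received 10-point compound doses starting at 100 μM or 10 μM (0.1% DMSO final). Secreted Aβ40 in supernatants measured by sandwich ELISA with time-resolved europium fluorescence; IC50 from percent inhibition versus concentration.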
(In general: An ELISA detects its analyte on a solid surface through an enzyme-linked reagent.)

Chain of BACE (P56817 46-501, species assumed): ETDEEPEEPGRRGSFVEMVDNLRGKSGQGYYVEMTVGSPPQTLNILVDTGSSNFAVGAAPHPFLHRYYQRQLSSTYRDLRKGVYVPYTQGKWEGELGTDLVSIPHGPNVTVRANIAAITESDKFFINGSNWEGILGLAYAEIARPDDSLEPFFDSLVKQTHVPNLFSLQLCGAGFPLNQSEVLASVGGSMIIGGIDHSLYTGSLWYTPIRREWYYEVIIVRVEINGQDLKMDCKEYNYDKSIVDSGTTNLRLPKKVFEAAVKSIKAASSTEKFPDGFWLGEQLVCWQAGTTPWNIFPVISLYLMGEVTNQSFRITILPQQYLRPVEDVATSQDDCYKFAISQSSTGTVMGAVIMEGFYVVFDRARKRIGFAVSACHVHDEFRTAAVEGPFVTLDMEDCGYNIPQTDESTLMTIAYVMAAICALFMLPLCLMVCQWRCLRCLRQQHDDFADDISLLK

`CC(C)(C)C#Cc1ccc2c(c1)[C@@]1(COCC(N)=N1)c1cc(-c3ccnc(F)c3)cnc1O2` [compound 219]: the IC50 in assay [1] came to 5.9 nM; in assay [2], 24.8 nM.
The like results for `COc1nc(-c2cccnc2)cc2c1Oc1ccc(-c3cccnc3F)cc1C21CCOC(N)=N1` (centres unmarked) [compound 221] were, in that order, 49.8 nM and 119 nM.
As to `N#Cc1cccc(-c2ccc3c(c2)[C@]2(CCOC(N)=N2)c2cc(-c4ccnc(F)c4)nc(F)c2O3)c1` [compound 222], the IC50 in assay [1] came out at 170 nM; in assay [2] it was 1580 nM.
The like results for `N#Cc1cccc(-c2ccc3c(c2)[C@@]2(CCOC(N)=N2)c2cc(C4=CCCOC4)nc(F)c2O3)c1` [compound 223] were, in that order, 0.8 nM and 1.4 nM.
The like results for `N#Cc1cccc(-c2ccc3c(c2)[C@]2(CCOC(N)=N2)c2cc(C4=CCCOC4)nc(F)c2O3)c1` [compound 224] were, in that order, 541 nM and 982 nM.
The like results for `N#Cc1cccc(-c2ccc3c(c2)[C@@]2(CCOC(N)=N2)c2cc(-c4ccnc(F)c4)nc(F)c2O3)c1` [compound 225] were, in that order, 0.7 nM and 3 nM.
For the compound `NC1=N[C@]2(CCO1)c1cc(-c3cccnc3F)ccc1Oc1c2cc(-c2cccnc2)nc1F` [compound 227], the results for the IC50 in assay [1] and in assay [2] were 489 nM and 101 nM, respectively.
The like results for `NC1=N[C@@]2(CCO1)c1cc(-c3cncc(F)c3)ccc1Oc1c2cc(C2=CCOCC2)nc1F` [compound 228] were, in that order, 0.3 nM and 0.7 nM.
Take `NC1=N[C@]2(CCO1)c1cc(-c3cncc(F)c3)ccc1Oc1c2cc(C2=CCOCC2)nc1F` [compound 229]: the values for the IC50 in assay [1] and in assay [2] were 149 nM and 127 nM, respectively.
The like results for `NC1=N[C@@]2(CCO1)c1cc(-c3cccnc3)ccc1Oc1c2cc(-c2cncc(F)c2)nc1F` [compound 231] were, in that order, 0.8 nM and 0.3 nM.
The like results for `NC1=N[C@]2(CCO1)c1cc(-c3cncc(F)c3)ccc1Oc1c2cc(C2=CCCOC2)nc1F` [compound 232] were, in that order, 793 nM and 164 nM.
Take `N#Cc1cccc(-c2ccc3c(c2)[C@]2(CCOC(N)=N2)c2cc(C4=CCOCC4)nc(F)c2O3)c1` [compound 233]: the IC50 in assay [1] was 1580 nM; in assay [2], 108 nM.
As to `N#Cc1cccc(-c2ccc3c(c2)[C@@]2(CCOC(N)=N2)c2cc(C4=CCOCC4)nc(F)c2O3)c1` [compound 234], the IC50 in assay [1] and in assay [2] was 0.7 nM each time.
Turning to `NC1=N[C@@]2(CCO1)c1cc(-c3cncc(F)c3)ccc1Oc1c2cc(C2=CCCOC2)nc1F` [compound 236], the figures for the IC50 in assay [1] and in assay [2] were 0.8 nM and 0.5 nM, respectively.
Turning to `NC1=N[C@]2(CCO1)c1cc(-c3cccnc3F)ccc1Oc1c2cc(C2=CCCOC2)nc1F` [compound 238], the IC50 in assay [1] came out at 293 nM; in assay [2] it was 171 nM.
The like results for `NC1=N[C@]2(CCO1)c1cc(-c3cccnc3)ccc1Oc1c2cc(-c2ccnc(F)c2)nc1F` [compound 240] were, in that order, 152 nM and 206 nM.
The like results for `NC1=N[C@@]2(COC1)c1cc(-c3cccnc3F)ccc1Oc1c2cc(Cl)nc1F` [compound 242] were, in that order, 1.2 nM and 16 nM.
The like results for `NC1=N[C@@]2(COC1)c1cc(-c3cccnc3F)ccc1Oc1c2cc(-c2cccnc2)nc1F` [compound 243] were, in that order, 0.3 nM and 0.5 nM.
Turning to `NC1=N[C@]2(COC1)c1cc(-c3cccnc3F)ccc1Oc1c2cc(Cl)nc1F` [compound 244], the results for the IC50 in assay [1] and in assay [2] were 481 nM and 3150 nM, respectively.
The like results for `NC1=N[C@@]2(COC1)c1cc(-c3cccnc3F)ccc1Oc1c2cc(-c2cncc(F)c2)nc1F` [compound 245] were, in that order, 0.3 nM and 0.3 nM.
The like results for `NC1=N[C@@]2(COC1)c1cc(-c3cccnc3)ccc1Oc1c2cc(C2=CCCOC2)nc1F` [compound 246] were, in that order, 0.4 nM and 0.1 nM.
In the case of `NC1=N[C@@]2(COC1)c1cc(-c3cccnc3F)ccc1Oc1c2cc(C2=CCOCC2)nc1F` [compound 247], the IC50 in assay [1] amounted to 0.6 nM; in assay [2] it was 0.8 nM.
The like results for `CC(C)(C)COc1cc2c(cn1)Oc1ccc(Br)cc1[C@@]21COCC(N)=N1` [compound 251] were, in that order, 19.6 nM and 62.5 nM.
The like results for `COc1cc2c(cn1)Oc1ccc(-c3cccc(F)c3)cc1[C@@]21COCC(N)=N1` [compound 252] were, in that order, 10.6 nM and 50 nM.
In the case of `CCOc1cc2c(cn1)Oc1ccc(-c3cncc(Cl)c3)cc1[C@@]21COCC(N)=N1` [compound 253], the IC50 in assay [1] is 1 nM; in assay [2], 1.5 nM.
`CC(C)COc1cc2c(cn1)Oc1ccc(-c3cncc(F)c3)cc1[C@@]21COCC(N)=N1` [compound 254]: the IC50 in assay [1] stood at 0.5 nM; in assay [2] it was 0.9 nM.
`CC(C)COc1cc2c(cn1)Oc1ccc(-c3cccnc3F)cc1[C@@]21COCC(N)=N1` [compound 255]: the IC50 in assay [1] turned out to be 0.5 nM; in assay [2], 1 nM.
The like results for `CCOc1cc2c(cn1)Oc1ccc(-c3cccc(F)c3)cc1[C@@]21COCC(N)=N1` [compound 256] were, in that order, 4.3 nM and 25.5 nM.
The like results for `NC1=N[C@@]2(COC1)c1cc(-c3cncc(F)c3)ccc1Oc1cnc(Cl)cc12` [compound 257] were, in that order, 32.8 nM and 42 nM.
As to `CC(C)Oc1cc2c(cn1)Oc1ccc(-c3cccnc3)cc1[C@@]21COCC(N)=N1` [compound 258], the figures for the IC50 in assay [1] and in assay [2] were 2.7 nM and 4.2 nM, respectively.
The like results for `CC(C)Oc1cc2c(cn1)Oc1ccc(-c3cccnc3F)cc1[C@@]21COCC(N)=N1` [compound 259] were, in that order, 1.2 nM and 4 nM.
The like results for `CCOc1cc2c(cn1)Oc1ccc(-c3cccnc3F)cc1[C@@]21COCC(N)=N1` [compound 260] were, in that order, 1.6 nM and 2.1 nM.
For the compound `NC1=N[C@]2(CCO1)c1cc(-c3cccnc3F)ccc1Oc1ncc(-c3ccnc(F)c3)cc12` [compound 267], the IC50 in assay [1] stood at 6670 nM; in assay [2], 3560 nM.
As to `NC1=N[C@@]2(CCO1)c1cc(-c3cccnc3F)ccc1Oc1ncc(C3=CCCOC3)cc12` [compound 268], the IC50 in assay [1] amounted to 11.6 nM; in assay [2], 21.7 nM.
Take `NC1=N[C@@]2(CCO1)c1cc(-c3cccnc3F)ccc1Oc1ncc(C3=CCOCC3)cc12` [compound 269]: the figures for the IC50 in assay [1] and in assay [2] were 12 nM and 5.6 nM, respectively.
For the compound `NC1=N[C@]2(CCS1)c1cc(-c3cccnc3F)ccc1Oc1ncc(C3=CCCOC3)cc12` [compound 271], the IC50 in assay [1] came out at 1040 nM; in assay [2] it was 2540 nM.
The like results for `NC1=N[C@@]2(CCS1)c1cc(-c3cccnc3F)ccc1Oc1ncc(C3=CCCOC3)cc12` [compound 272] were, in that order, 4 nM and 11 nM.

The values above are taken from patent US9012446B2, “Amino-oxazines and amino-dihydrothiazine compounds as beta-secretase modulators and methods of use” (Amgen Inc., priority 2010, dated 2015).
